Patent publication US20240059689A1, “PURINE DERIVATIVES AS ANTICANCER AGENTS” (Tango Therapeutics, Inc., priority 2021, published 2024)

Experiments:
[1] = biological target: USP1-UAF1 (Homo sapiens, UniProt O94782); assay: Ubiquitin Rhodamine assay of USP1-UAF1 activity; assay type: biochemical
Protocol: Certain compounds of the disclosure were assessed for USP1-UAF1 activity in a Ubiquitin Rhodamine assay as described in Biology Example 1.

[2] = tested on: MDA-MB-436; assay: Viability assay, BRCA1 mutant cell line MDA-MB-436; assay type: cell-based; details: Homo sapiens, MDA-MB-436, viability, BRCA1 mutant MDA-MB-436; read-out: MDA-MB-436 rel IC50
Description: (§1) Table 1 also indicates IC50 values in a viability assay for a non-isogenic pair of BRCA1 mutant (column 5-MDA-MB-436) and BRCA1 WT (column 6—HCC1954) cell lines. These values indicate the effect of treatment with compound on cell survival.

[3] = tested on: HCC1954; assay: Viability assay, BRCA1 WT cell line HCC1954; assay type: cell-based; details: Homo sapiens, HCC1954, viability, read-out: HCC1954 rel IC50
Description: as §1

[4] = tested on: monoubiquitinated PCNA; assay: AlphaLISA assay measuring monoubiquitinated PCNA in MDA-MB-436; assay type: cell-based; details: Homo sapiens, MDA-MB-436, monoubiquitinated PCNA, read-out: Alpha Lisa IC50
Description: Table 1 also indicates IC50 values for exemplary compounds in an AlphaLISA assay measuring monoubiquitinated PCNA in a BRCA1 mutant cell line (MDA-MB-436; column 7).

Chain of USP1-UAF1 (O94782 whole entry): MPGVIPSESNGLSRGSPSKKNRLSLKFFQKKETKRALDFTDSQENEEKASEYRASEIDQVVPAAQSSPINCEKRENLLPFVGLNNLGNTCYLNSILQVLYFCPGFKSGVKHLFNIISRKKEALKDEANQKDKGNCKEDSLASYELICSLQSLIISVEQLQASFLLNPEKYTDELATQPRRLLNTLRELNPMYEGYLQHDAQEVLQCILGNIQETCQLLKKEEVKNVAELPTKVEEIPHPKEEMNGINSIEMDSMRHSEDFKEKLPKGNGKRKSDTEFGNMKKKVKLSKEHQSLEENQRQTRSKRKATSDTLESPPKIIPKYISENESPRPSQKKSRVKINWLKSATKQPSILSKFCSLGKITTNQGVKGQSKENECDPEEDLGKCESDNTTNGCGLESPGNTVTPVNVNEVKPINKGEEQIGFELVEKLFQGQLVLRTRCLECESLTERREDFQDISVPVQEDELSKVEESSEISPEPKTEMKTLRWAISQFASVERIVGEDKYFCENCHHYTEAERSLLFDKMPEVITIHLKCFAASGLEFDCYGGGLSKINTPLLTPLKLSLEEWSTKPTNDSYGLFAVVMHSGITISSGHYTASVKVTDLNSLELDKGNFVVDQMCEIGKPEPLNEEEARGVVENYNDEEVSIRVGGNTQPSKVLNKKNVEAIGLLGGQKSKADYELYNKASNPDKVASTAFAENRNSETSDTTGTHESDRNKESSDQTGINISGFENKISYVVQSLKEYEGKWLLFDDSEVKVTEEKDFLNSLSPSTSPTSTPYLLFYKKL
Chain of USP1-UAF1 (Q8TAF3 whole entry partner): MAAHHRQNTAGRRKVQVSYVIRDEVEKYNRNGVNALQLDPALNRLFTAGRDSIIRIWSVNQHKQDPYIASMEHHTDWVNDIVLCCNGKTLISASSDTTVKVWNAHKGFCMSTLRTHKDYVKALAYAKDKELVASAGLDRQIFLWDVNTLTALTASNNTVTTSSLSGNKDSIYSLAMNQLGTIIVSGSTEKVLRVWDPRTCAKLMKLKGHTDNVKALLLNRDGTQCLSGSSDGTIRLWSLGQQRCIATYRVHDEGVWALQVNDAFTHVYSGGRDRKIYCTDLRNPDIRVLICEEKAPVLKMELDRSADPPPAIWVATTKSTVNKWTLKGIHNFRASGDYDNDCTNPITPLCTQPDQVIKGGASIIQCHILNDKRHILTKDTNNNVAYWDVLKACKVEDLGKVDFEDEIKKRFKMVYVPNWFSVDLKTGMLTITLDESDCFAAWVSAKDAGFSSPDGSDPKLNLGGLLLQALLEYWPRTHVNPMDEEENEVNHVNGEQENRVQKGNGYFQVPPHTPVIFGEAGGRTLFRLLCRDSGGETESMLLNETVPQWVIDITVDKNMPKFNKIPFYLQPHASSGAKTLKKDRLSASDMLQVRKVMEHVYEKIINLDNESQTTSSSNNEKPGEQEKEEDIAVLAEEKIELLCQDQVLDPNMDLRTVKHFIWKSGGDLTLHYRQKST

Compound | IC50 [1] [nM] | IC50 [2] [nM] | IC50 [3] [nM] | IC50 [4] [nM]
COc1ncnc(C2CC2(F)F)c1-c1ncc2c(n1)n(Cc1ccc(-c3nc(C(F)(F)F)cn3C)cc1)c(=N)n2CC(F)(F)F (stereo not shown) [Example T-116, 2-[4-(2,2-difluorocyclopropyl)-6-methoxy-pyrimidin-5-yl]-9-[[4-[1-methyl-4-(trifluoromethyl)imidazol-2-yl]phenyl]methyl]-7-(2,2,2-trifluoroethyl)purin-8-imine] | 100 to 10000 | < 100 | ≥ 10000 | < 100
COc1ncnc(C2CC2)c1-c1ncc2c(n1)n(Cc1ccc(-c3nc(C(F)(F)F)cn3C)c(F)c1)c(=N)n2CC(F)(F)F [Example T-118, 2-(4-cyclopropyl-6-methoxypyrimidin-5-yl)-9-(3-fluoro-4-(1-methyl-4-(trifluoromethyl)-1H-imidazol-2-yl)benzyl)-7-(2,2,2-trifluoroethyl)-7H-purin-8(9H)-imine] | 100 to 10000 | < 100 | ≥ 10000 | < 100
CCOc1ncnc(C2CC2)c1-c1ncc2c(n1)n(Cc1ccc(-c3nc(C(F)(F)F)cn3C)cc1)c(=N)n2CC(F)(F)F [Example T-119, 2-(4-cyclopropyl-6-ethoxy-pyrimidin-5-yl)-9-[[4-[1-methyl-4-(trifluoromethyl)imidazol-2-yl]phenyl]methyl]-7-(2,2,2-trifluoroethyl)purin-8-imine] | 100 to 10000 | 100 to 250 | ≥ 10000 | 100 to 250
CNc1nc(OC)c(-c2ncc3c(n2)n(Cc2ccc(-c4nc(C(F)(F)F)cn4C)cc2)c(=N)n3C)c(C2CC2)n1 [Example T-122, 4-cyclopropyl-5-[8-imino-7-methyl-9-[[4-[1-methyl-4-(trifluoromethyl)imidazol-2-yl]phenyl]methyl]purin-2-yl]-6-methoxy-N-methyl-pyrimidin-2-amine] | 100 to 10000 | 100 to 250 | ≥ 10000 | 250 to 10000
Cn1cc(C(F)(F)F)nc1-c1ccc(Cn2c(=N)n(CC(F)(F)F)c3cnc(-c4cccnc4OC(F)F)nc32)cc1 [Example T-125, 2-[2-(difluoromethoxy)-3-pyridyl]-9-[[4-[1-methyl-4-(trifluoromethyl)imidazol-2-yl]phenyl]methyl]-7-(2,2,2-trifluoroethyl)purin-8-imine] | 30 to 100 | 100 to 250 | 250 to 10000 | 100 to 250
COc1ncnc(C2CC2)c1-c1ncc2c(n1)n(Cc1cc(F)c(-c3nc(C(F)(F)F)cn3C)c(F)c1)c(=N)n2CC(F)(F)F [Example T-126, 2-(4-cyclopropyl-6-methoxy-pyrimidin-5-yl)-9-[[3,5-difluoro-4-[1-methyl-4-(trifluoromethyl)imidazol-2-yl]phenyl]methyl]-7-(2,2,2-trifluoroethyl)purin-8-imine] | 30 to 100 | < 100 | ≥ 10000 | < 100
COc1ncnc(C2CC2)c1-c1ncc2c(n1)n(Cc1cc(F)c(-n3nc(C(F)(F)F)cc3OC)c(F)c1)c(=N)n2CC(F)(F)F [Example T-127] | 30 to 100 | < 100 | ≥ 10000 | < 100
COc1ncnc(C2CC2)c1-c1ncc2c(n1)n([C@H](C)c1ccc(-c3nc(C(F)(F)F)cn3C)cc1)c(=N)n2C [Example T-131, 2-(4-cyclopropyl-6-methoxy-pyrimidin-5-yl)-7-methyl-9-[(1R)-1-[4-[1-methyl-4-(trifluoromethyl)imidazol-2-yl]phenyl]ethyl]purin-8-imine] | 30 to 100 | < 100 | ≥ 10000 | < 100
CCn1cc(C(F)(F)F)nc1-c1ccc(Cn2c(=N)n(CC(F)(F)F)c3cnc(-c4c(OC)ncnc4C4CC4)nc32)cc1 [Example T-132] | 30 to 100 | < 100 | ≥ 10000 | < 100

Results, then the compound that gave them:

IC50 [1] [nM] | IC50 [2] [nM] | IC50 [3] [nM] | IC50 [4] [nM] | Compound
30 to 100 | 100 to 250 | ≥ 10000 | 250 to 10000 | COc1ncnc(OC)c1-c1ncc2c(n1)n(Cc1ccc(-c3nc(C(F)(F)F)cn3C)cc1)c(=N)n2CC(F)(F)F [Example T-110, 2-(4,6-dimethoxypyrimidin-5-yl)-9-[[4-[1-methyl-4-(trifluoromethyl)imidazol-2-yl]phenyl]methyl]-7-(2,2,2-trifluoroethyl)purin-8-imine]
30 to 100 | < 100 | ≥ 10000 | < 100 | COc1ncnc(C2CC2(F)F)c1-c1ncc2c(n1)n(Cc1ccc(-c3nc(C(F)(F)F)cn3C)cc1)c(=N)n2C (stereo not shown) [Example T-111, 2-(4-(2,2-difluorocyclopropyl)-6-methoxypyrimidin-5-yl)-7-methyl-9-(4-(1-methyl-4-(trifluoromethyl)-1H-imidazol-2-yl)benzyl)-7H-purin-8(9H)-imine]
30 to 100 | < 100 | ≥ 10000 | 100 to 250 | Cn1cc(C(F)(F)F)nc1-c1ccc(Cn2c(=N)n(CC(F)(F)F)c3cnc(-c4c(OC(F)(F)F)ccnc4C4CC4)nc32)cc1 [Example T-112, 2-[2-cyclopropyl-4-(trifluoromethoxy)-3-pyridyl]-9-[[4-[1-methyl-4-(trifluoromethyl)imidazol-2-yl]phenyl]methyl]-7-(2,2,2-trifluoroethyl)purin-8-imine]
< 30 | < 100 | ≥ 10000 | < 100 | COc1ncnc(C2CC2)c1-c1ncc2c(n1)n(Cc1ccc(-n3nc(C(F)(F)F)cc3OC)cc1)c(=N)n2CC(F)F [Example T-113, 2-(4-cyclopropyl-6-methoxy-pyrimidin-5-yl)-7-(2,2-difluoroethyl)-9-[[4-[5-methoxy-3-(trifluoromethyl)pyrazol-1-yl]phenyl]methyl]purin-8-imine]
30 to 100 | < 100 | ≥ 10000 | < 100 | CCOc1cc(C(F)(F)F)nn1-c1ccc(Cn2c(=N)n(CC(F)(F)F)c3cnc(-c4c(OC)ncnc4C4CC4)nc32)cc1 [Example T-114]
30 to 100 | 100 to 250 | 250 to 10000 | 100 to 250 | Cc1ccnc(OC(F)F)c1-c1ncc2c(n1)n(Cc1ccc(-c3nc(C(F)(F)F)cn3C)cc1)c(=N)n2CC(F)(F)F [Example T-115, 2-(2-(difluoromethoxy)-4-methylpyridin-3-yl)-9-(4-(1-methyl-4-(trifluoromethyl)-1H-imidazol-2-yl)benzyl)-7-(2,2,2-trifluoroethyl)-7H-purin-8(9H)-imine]
30 to 100 | < 100 | ≥ 10000 | < 100 | COc1ncnc(C2CC2)c1-c1ncc2c(n1)n(Cc1ccc(-n3nc(C(F)(F)F)cc3OC)cc1)c(=N)n2CC(F)(F)F [Example T-117, 2-(4-cyclopropyl-6-methoxy-pyrimidin-5-yl)-9-[[4-[5-methoxy-3-(trifluoromethyl)pyrazol-1-yl]phenyl]methyl]-7-(2,2,2-trifluoroethyl)purin-8-imine]
< 30 | < 100 | ≥ 10000 | < 100 | COc1ncnc(C2CC2)c1-c1ncc2c(n1)n(Cc1ccc(-c3nc(C(F)(F)F)cn3C3CCC3)cc1)c(=N)n2CC(F)(F)F [Example T-120, 9-[[4-[1-cyclobutyl-4-(trifluoromethyl)imidazol-2-yl]phenyl]methyl]-2-(4-cyclopropyl-6-methoxy-pyrimidin-5-yl)-7-(2,2,2-trifluoroethyl)purin-8-imine]
30 to 100 | 100 to 250 | ≥ 10000 | 250 to 10000 | COc1nccc(F)c1-c1ncc2c(n1)n(Cc1ccc(-c3nc(C(F)(F)F)cn3C)cc1)c(=N)n2CC(F)(F)F [Example T-121, 2-(4-fluoro-2-methoxy-3-pyridyl)-9-[[4-[1-methyl-4-(trifluoromethyl)imidazol-2-yl]phenyl]methyl]-7-(2,2,2-trifluoroethyl)purin-8-imine]
30 to 100 | < 100 | ≥ 10000 | < 100 | COc1ncnc(C2CC2)c1-c1ncc2c(n1)n(Cc1ccc(-c3nc(C(F)(F)F)cn3C)cc1)c(=N)n2CC(F)F [Example T-123, 2-(4-cyclopropyl-6-methoxy-pyrimidin-5-yl)-7-(2,2-difluoroethyl)-9-[[4-[1-methyl-4-(trifluoromethyl)imidazol-2-yl]phenyl]methyl]purin-8-imine]
< 30 | < 100 | ≥ 10000 | < 100 | COc1cc(C(F)(F)F)nn1-c1ccc(Cn2c(=N)n(CC(F)(F)F)c3cnc(-c4c(C)cnn4C(C)C)nc32)cc1 [Example T-124, 2-(2-isopropyl-4-methyl-pyrazol-3-yl)-9-[[4-[5-methoxy-3-(trifluoromethyl)pyrazol-1-yl]phenyl]methyl]-7-(2,2,2-trifluoroethyl)purin-8-imine]
< 30 | < 100 | 250 to 10000 | < 100 | COc1ncnc(C2CC2)c1-c1ncc2c(n1)n(Cc1ccc(-c3nc(C(F)(F)F)sc3C)cc1)c(=N)n2CC(F)(F)F [Example T-128]
< 30 | < 100 | ≥ 10000 | < 100 | Cc1cnn(C(C)C)c1-c1ncc2c(n1)n(Cc1ccc(-c3nc(C(F)(F)F)cn3C)cc1)c(=N)n2CC(F)(F)F [Example T-130, 2-(2-isopropyl-4-methyl-pyrazol-3-yl)-9-[[4-[1-methyl-4-(trifluoromethyl)imidazol-2-yl]phenyl]methyl]-7-(2,2,2-trifluoroethyl)purin-8-imine]
